Test results as given in patent US20240216412A1, “OXIDIZED NICOTINAMIDE ADENINE DINUCLEOTIDE (NAD+) PRECURSOR TREATMENT FOR HEART FAILURE ALLEVIATION INDEPENDENT OF MITOCHONDRIAL PROTEIN DEACETYLATION” (University of Washington, priority 2022, published 2024).

Tests used:
[1] = test system: heart mRNA levels (Nppa, Ctgf, mtDNA encoded genes, PPARα/RXRα target genes); test: RT-PCR of heart transcripts and mitochondrial RNA junctions; assay type: in vivo, mouse; conditions: ISO treated hearts, NR in the presence of GW6471
Description: RNA Extraction and Quantitative Real-Time Polymerase Chain Reaction (RT-PCR). Total RNA was isolated from frozen heart tissue using the RNeasy fibrous Kit (Qiagen). Total RNA was reverse-transcribed into first-strand cDNA using Iscript (Bio-rad) according to manufacturer's guidelines. Real Time PCR was performed using SYBR green (Bio-Rad). Results of mRNA levels were normalized to 18S rRNA levels and reported as fold-change over control.

[2] = test system: cardiac mitochondria; test: Isolated cardiac mitochondria respiration (oxygen electrode); assay type: in vivo, mouse; conditions: ISO treated mice, GW6471 in addition to NR
Description: Mitochondrial Isolation from cardiac tissue. Hearts were excised from mice, the aortas and atria were removed. Heart tissues were rinsed briefly in ice-cold mitochondria isolation medium (MIM) (70 mM sucrose, 220 mM mannitol, 5 mM MOPS, 1 mM EDTA, 0.025% fatty acid-free BSA, pH 7.4 with 5M KOH) to remove residual blood. Tissues were minced on ice and resuspended in fresh MIM, followed by trypsin digestion (10 ug/ml) and incubated on ice for 10 min. Trypsin digestion was stopped by the addition of trypsin inhibitor (0.5 mg/ml) and additional BSA (1 mg/ml) to MIM. The tissue pellets were resuspended in fresh MIM containing 1 mg/ml BSA, and transferred to a Teflon-glass tube and homogenized on ice with a Teflon pestle. The homogenates were centrifuged for 10 min at 800×g at 4° C. The supernatants were collected and centrifuged for 10 min at 8,000×g at 4° C. The supernatant was discarded and the mitochondrial pellets were resuspended in MIM to wash. The resuspension was centrifuged for 10 min at 8,000×g at 4° C., and the supernatant discarded. The mitochondrial pellet was resuspended to a concentrated volume for protein quantification by BCA Assay (Pierce).
Mitochondrial respirations. Isolated mitochondria respiration experiments were performed in an Clark type oxygen electrode Oxytherm System (Hansatech Instruments) at 30C. Briefly, freshly isolated mitochondria were added to respiration buffer (125 mM KCl, 20 mM HEPES, 3 mM MgCl2, 400 μM EGTA, 5 mM KH2PO4, 0.2% BSA (fatty acid free), pH 7.2) and placed in the respiration chamber to measure baseline respiration (State 1). The change in oxygen levels following the immediate addition of substrates (pyruvate/malate (5 mM/2 mM) or palmitoylcarnitine/malate (50 μM/2 mM) (State 2) followed by the sequential addition of 2.5 mM ADP (State 3), […] Oligomycin (State 4p) and 1 μM FCCP (FCCP Max). Antimycin A (2.5 μM) was added last to measure the residual oxygen consumption not accounted for by the electron transfer chain and it was subtracted from the previous measurements.

[3] = test system: isoproterenol (ISO) induced heart failure in WT and Sirt3Ko mice; test: Isoproterenol (ISO) minipump induced heart failure, echocardiography and HW/TL; assay type: in vivo, mouse; conditions: 14 days of ISO, NR plus GW6471 4.5 mg/kg/day
Description: Minipump implantation. Pathologic hypertrophy was induced by treating male (3-4 months old) Sirt3ko and WT mice with isoproterenol (ISO) or vehicle for 14 days. Mice with and without GW6471(4.5 mg/kg/day) were treated with NR (500 mg/kg body weight IP daily) or vehicle starting at day one after mini-pump insertion. Briefly, an incision was made in the skin between the shoulder blades. A deep subcutaneous pocket was made caudal to the incision using blunt dissection. The sterile minipump (Alzet #2002) was inserted into the pocket, and the incision was closed with wound clips. Isoproterenol (30 mg/kg/day) was delivered by osmotic minipump for 14 days. Minipumps carrying saline were used as a control.
Transthoracic Echocardiography. Echocardiography of hearts was performed at indicated time after surgery using the VEVO 2100 high-frequency, high-resolution digital imaging system (VisualSonics) equipped with a MS400 Microscan Transducer on anesthetized mice (0.5%-2% isoflurane in 95% oxygen). Measurements were made when heart rate was >450 bpm. Cardiac function and geometry measurements were measured in parasternal short axis view. M-mode images were used for analysis and calculated by the average of at least three cardiac cycles and carried out in a blind fashion. Hearts were harvested at 12-week post-surgery for subsequent experiments and biochemical assays.
Organ weight and histological assessment. Hearts from mice were harvested, rinsed briefly in 1×PBS, blotted dry, and weighed. Lungs from the same mice were harvested, weighed, then dried at 56 C. After 72 hours the lungs were weighed again. Heart weight (HW) and Lung weight (LW) was normalized to tibia length (TL) to assess changes in hypertrophic growth and lung edema, respectively. For histology, hearts were perfusion fixed with 10% neutral buffered formalin. Longitudinal sections of hearts were stained with Masson's Trichrome for assessment of fibrosis by the University of Washington Histology and Imaging Core.

[4] = test system: RXRα; test: Chromatin immunoprecipitation (ChIP) of RXRα at the Acadm promoter PPRE; assay type: in vivo; conditions: ISO mouse hearts, NR plus GW6471
Description: Chromatin immunoprecipitation (ChIP). The EZ ChIP kit (EMD Millipore catalog #17-371) was used according to the manufacturer's protocol. Briefly, heart tissue was cut into small pieces using a razor blade in a petri dish on ice. The cubed tissue was incubated in fixation solution (1% formaldehye) in a conical tube and rotated at room temperature for 15 minutes to crosslink proteins and chromatin. The reaction was stopped by adding 0.125M Glycine for 5 min at room temperature. The contents were homogenized with a hand-held tissue homogenizer for 45 seconds then pelleted by centrifugation for 3 minutes at 1,250×g at 4C. The supernatant was discarded and the pellet was resuspended in 10 ml ice-cold PBS wash buffer followed by centrifugation at 1,250×g for 3 minutes. This was wash step was repeated on ice. The supernatant was discarded and the pellet resuspended in 5 ml chromatin prep buffer and incubated on ice for 10 minutes. The resuspended pellet was homogenized on ice with a dounce homogenizer for 30 strokes and then contents transferred to new conical tube on ice. The suspension was centrifuged 3 minutes at 1,250×g at 4C then supernatant discarded. The pellet was resuspended in 1 ml Chip buffer and transferred to new centrifuge tube then incubated on ice for 10 minutes. […] Purified chromatin was analyzed on a 1% agarose gel to determine the shearing efficiency. […]

**Q.** What does the source list for CCC(=O)NC[C@H](Cc1ccc(OCCc2nc(-c3ccccc3)oc2C)cc1)N/C(C)=C\C(=O)c1ccc(C(F)(F)F)cc1 [GW6471]?
**A.** PPARα/RXRα target gene expression [1]: failed to preserve; Restoration by NR of PLC supported State 3 respiration [2]: clearly blocked; Protection by NR (FS %, cardiac hypertrophy) [3]: blocked; NR-induced increase of RXRα binding occupancy at the Acadm PPRE [4]: blocked
